Drawing on a melting point compilation (Tetko et al.; mined from patent text by program, amines drawn as free bases though some values may be those of a salt), this text covers melting point for 91 molecules.

Starred links: 1 amine or outer side, 2 acyl side, 3 side chain; linkers in the order of their positions; H or OH if unused. Residues, ends and D or L forms follow the SMILES beside them. Suc = O=C(CCC(=O)[*:2])[*:1]

With `Cc1cc(CCCCCOc2ccc(-c3nc4ccccc4s3)cc2)on1`, the melting point (in general, the temperature of the solid-liquid transition) was 70.5 to 71.2 °C.
The same measure for `O=C1c2ccccc2OS(=O)N1SC(Cl)(Cl)Cl` (stereo unspecified): 65 to 67 °C; for `CN1Cc2c(C#CC(C)(C)O)ncn2-c2cccc(Cl)c2C1=O`: 194 to 195 °C; for `O=Cc1ncn2c1[C@@H]1CCCN1C(=O)c1ccccc1-2`: 206 to 208 °C.
Molecule `COc1cc(C)nc(NC(=O)NS(=O)(=O)c2cccc(NC(=O)OC(C)C)c2)n1` displayed a melting point of 173 to 180 °C.
To `CNC(=O)N1N=C(c2ccc([N+](=O)[O-])cc2)c2cc(Cl)ccc2CC1C` (stereo unspecified) belongs 190 to 192 °C; to `C=CCN1C2CCC3C1CCC2N3C(c1ccc(C(=O)N2CCCC2)cc1)c1cccc(OC)c1` (stereo unspecified), 126 to 128 °C.
Turning to `NC(=O)c1cnn(-c2ncc(C(F)(F)F)cc2Cl)c1N`, the melting point amounted to 196 °C.
The same measure for `CCC(C(=O)N(C)C)n1cc(Cl)c(-c2ccccc2C)n1` (stereo unspecified): 49.5 to 52 °C.
To `CCCCCCCCCCCCCCCCS(=O)(=O)Nc1cccc(C(C)=O)c1` belongs 95.5 to 100 °C; to `COC(=O)c1ccc2nc(-n3ccnc3)nc(NCCOCCO)c2c1`, 233 to 235 °C.
The same measure for `O=C(O)c1cn(C2CC2)c2c(F)c(N3CCC[C@H]3CO)c(F)cc2c1=O`: 209 to 210 °C.
For `Cc1ccc(S(=O)(=O)C(C)(C)C(=O)C2CCCCC2)cc1`, the melting point lay in the range of 123 to 124 °C.
To `CCc1nc(OC)c(NC(=O)N2CCN(c3cc(C)cc(C)c3)CC2)cc1C(=O)Nc1cc(CO)cc(Nc2c3ccccc3nc3ccccc23)c1` belongs 178 to 180 °C.
The same measure for `CC(C)Oc1ccnc2[nH]ccc12`: 182 to 184 °C.
In turn, `CNC(=S)NCCCSc1cncc(NC(N)=NCC(F)(F)F)n1` showed a melting point of 165 to 167 °C.
To `O=S(=O)(c1ccccc1)c1n[nH]c2ccccc12` belongs 118 °C; to `Cc1ccccc1C(=O)Nc1ccc(C(=O)N2Cc3ccccc3Cc3ccccc32)c(Cl)c1`, 138 to 150 °C; to `COC(=O)C(NC(=O)c1c(F)cccc1F)c1ccc(Br)s1` (stereo unspecified), 123 to 124 °C.
Take `COC(=O)CC(C(OC)OC)C(C)(C)S(=O)(=O)c1ccc(C)cc1` (stereo unspecified): the melting point was 110 °C.
For `N[C@H](Cc1ccc(C(F)(F)F)cc1)[C@@H](O)c1cccc(Cl)n1` (racemic), the melting point lay within 89 to 90 °C.
The same measure for `CC(=O)NC(CC(=O)O)CN(C)C` (stereo unspecified): 202 °C.
In turn, `CC(=O)NC[C@H]1CN(c2cc(F)c(N3CCS(=O)(=O)CC3)c(F)c2)C(=O)O1` displayed a melting point of 187 to 190 °C.
The same measure for `O=C1NC(=O)C(CCOc2ccc(F)cc2)S1` (stereo unspecified): 94 to 96 °C; for `Cc1nc2ncnn2c(O)c1F`: 273 °C; for `Cc1cc(-c2noc(C3CC3)n2)cc(C)c1OCCCc1cc(CO)no1`: 80 to 81 °C.
To `CCCCC1(CC)CSc2ccccc2N(c2ccccc2)C1=O` (stereo unspecified) belongs 90 °C; to `COc1cc2c(cc1-c1ccccc1)CCN=C2C1(c2ccccc2Cl)CCC1`, 149 to 152 °C.
To `CC(Cn1cc(Cl)c(-c2ccccc2Cl)n1)C(=O)N(C)C` (stereo unspecified) belongs 91 to 92 °C; to `CCCCCCCCCCCCCCCCCCC1CNc2cc(C(=O)O)ccc21` (racemic), 112 to 114 °C.
In turn, `CCOCc1nc2c(N)nc3ccccc3c2n1OC(C)C` had a melting point of 179 to 181 °C.
`CCCCCCCCCCOc1ccc(Br)cc1C12CC3CC(CC(C3)C1)C2` returned a melting point of 69 to 70 °C.
The same measure for `COc1ccc(-c2ccccc2C)cc1C=O`: 66 to 69 °C.
To `CCOC(=O)c1cccc(-c2coc3cc(O)c(O)cc3c2=O)c1` belongs 217 to 218 °C; to `CC(C)(C)c1cc2c(c(C(C)(C)C)c1)OC(=O)C2c1ccc(F)cc1` (stereo unspecified), 146 to 147 °C.
To `C=CCOc1ccccc1N(CC1CO1)S(C)(=O)=O` (stereo unspecified) belongs 78 °C; to `COC(=O)c1cc2cccc(C=O)c2[nH]1`, 87 °C; to `Cc1nc(CS(C)=O)nc(OC(=O)N(C)C)c1C(C)C` (stereo unspecified), 80 °C.
Take `O=C(CN1C(=O)c2ccccc2S1(=O)=O)OC1CCCCC1`: the melting point is 83 °C.
To `COc1ccccc1N1CCC(CNC(=O)Nc2c(C(C)C)cc(N)cc2C(C)C)(c2cccc(OCCCO)c2)CC1` belongs 203 to 205 °C; to `c1cn(Cc2nc(-c3ccc4c(c3)OCO4)c3cc4c(cc3n2)OCO4)cn1`, 182 to 185 °C.
The same measure for `Cc1nc(-c2ccccc2)nc(Cl)c1C`: 120 to 122 °C.
To `CCCCCCCCOc1cnc(-c2ccc(C#CCCCC(C)OC(C)=O)cc2)nc1` (stereo unspecified) belongs 58 to 59 °C; to `CCCn1c(=O)[nH]c2cnc(-c3ccccc3)nc21`, 263 to 264 °C; to `NS(=O)(=O)c1cc2cccnc2s1`, 223 to 225 °C.
`Cc1nc2cc(-c3ccc(C=C4SC(=O)NC4=O)cn3)cc(C3CCCCC3)c2o1` had a melting point of 314 to 316 °C.
Take `CC(=O)Nc1ccc(Sc2ccc(Cl)cc2)cc1`: the melting point is 140 to 141 °C.
The same measure for `C#Cc1ccc(CO[C@@H]2COc3nc([N+](=O)[O-])cn3C2)nc1`: 135 to 136 °C; for `CCCCc1cn(-c2ccccc2Cl)c(=O)n1Cc1ccc(-c2ccccc2-c2nnn[nH]2)nc1`: 81 to 83 °C; for `Cc1c(C2CCN(C)CC2)[nH]c(=O)c2ccccc12`: 202 to 204 °C.
To `CCCCc1ccc(C(=O)Nc2cc(CCCC)c(NC(=O)c3ccc(CCCC)cc3)c3c2C(=O)c2ccccc2C3=O)cc1` belongs 180 to 181 °C; to `CCNC(=O)C1CCCN1C(=O)C(C)NC(=O)C(C)NC(=O)CCC(=O)O` (stereo not drawn) (Suc-Ala-Ala-Pro-NHEt; configuration not given here), 185 to 186 °C.
To `NS(=O)(=O)c1cc(C(=O)O)cc(S)c1Cl` belongs 263 to 264 °C; to `CN(C)[C@H]1CC[C@H](Nc2ncc3ncnc(Nc4ccc(OCc5ccccc5)cc4)c3n2)CC1`, 155 °C; to `COC(=O)Cc1sc(Sc2cc(C(=O)OC)nc(SC)n2)nc1C`, 131 to 133 °C.
For `CC(C)C(=O)N[C@@H](CS)C(=O)O`, the melting point was 103 to 104 °C.
To `Cc1ccccc1Nc1nc(NCc2ccccc2)nc2ccccc12` belongs 127 to 130 °C; to `COc1cc(NOC(C)=O)cc(OC)c1`, 163 to 165 °C.
On to `CN(C)C=NS(=O)(=O)CCC(C)(C)CCI`, for which the melting point was in the range of 105 to 106 °C.
The same measure for `C=CCOc1ccc(F)cc1-c1ccccc1-c1ccccc1`: 48 to 49 °C; for `O=C(Nc1ccc2c(c1)CCN(C(=O)Nc1ccc(OCC(O)CO)cc1Cl)C2)Nc1ccccc1F` (stereo unspecified): 164 to 167 °C.
As to `CCOC(=O)NC(=S)SCC`, the melting point was 60 °C.
To `C#CCN(CC#C)S(=O)(=O)c1cccc2c(N(C)C)cccc12` belongs 67 to 69 °C; to `CC(=O)Nc1cc(-n2c(=O)cc(C(F)(F)F)n(C)c2=O)c(F)cc1Cl`, 257 to 258 °C; to `CCN(CC)CC(=O)Nc1ccc2c(c1)C(=O)c1cc(NC(=O)CN(CC)CC)ccc1C2=O`, 241 °C.
As for `CC1=NNC(=O)C1(C)Cl` (stereo unspecified), the melting point turned out to be 56 °C.
To `CC(C)(C)OC(=O)Nc1cc([N+](=O)[O-])c2ncccc2c1` belongs 134 to 135 °C; to `CC(CO)n1nc(-c2cnc(N)nc2-c2ccccc2)ccc1=O` (stereo unspecified), 222 to 223 °C.
The same measure for `COc1cc(C2C3=C(COC3=O)Nc3ccc4nc(C)sc4c32)ccc1O` (stereo unspecified): 293 to 295 °C; for `CCCCCCCCCCCCCCCCCCN(CCCCCCCCCCCCCCCCCC)c1ccc([N+](=O)[O-])cc1[N+](=O)[O-]`: 55.5 to 57.5 °C.
The same measure for `O=C(Cn1nc(-c2ccccc2O)nc1-c1ccccc1O)NCCO`: 208 to 211 °C; for `Cc1sc2nc(N)[nH]c(=O)c2c1-c1ccc(F)cc1`: 360 to 362 °C; for `O=C(O)CSCc1nccc2ccccc12`: 186 to 187 °C.
As for `COc1cc(CCCC(=O)O)ccc1C`, the melting point fell in the range of 69 to 70 °C.
The same measure for `O=C(CNc1ccccc1)Nc1ccccc1C(=O)O`: 192 to 193 °C; for `CCCCCCCCNC(=O)C1=C(C(=O)Nc2cc(OC3CCCC3)c(Cl)cc2F)CCCC1`: 127 to 130 °C.
To `O=C(Nc1ccc(C(=O)N2Cc3ccccc3Cc3ccccc32)cc1)c1ccc(Cl)c(Cl)c1` belongs 212 to 215 °C; to `CN1CCN(c2cc3ccccc3cn2)CC1`, 93 to 94 °C.
For `O=C1CCc2c(-c3ccncc3)sc(-c3ccc(C(F)(F)F)cc3)c21`, the melting point was in the range of 158 to 160 °C.
As to `CNC(=O)c1ccc(F)c2c1CC(N(CCCCc1c[nH]c3ccc(F)cc13)CC1CC1)CO2` (stereo unspecified), the melting point was 112 °C.
For the molecule `O=C(O)c1cc(-c2ccc(OCc3ccccc3)cc2OCc2ccccc2)no1`, the melting point lay in the range of 192 to 193 °C.
The same measure for `N#Cc1ccc(C(=O)N2CCC3(CC2)OCCO3)cn1`: 133 to 135 °C.
The molecule `Cc1cc(CO)c(C)cc1O` gave a melting point of 164 to 165 °C.
Turning to `COc1cc(-c2nc(NC(=O)c3cc4cc(C)cc(C)c4n3CC(=O)O)sc2CCC2CCCCC2)c(OC)cc1Cl`, the melting point came to 241 °C.
To `CCOC(=O)c1nc2cc(C)c(C)cc2nc1Cl` belongs 109 to 111 °C; to `Cn1cc(C2CCN(CCCCNC(=O)c3sc(-c4ccc(C(F)(F)F)cc4)nc3CO)CC2)c2ccccc21`, 160 °C; to `COC(=O)CCc1cnoc1-c1ccc2c(c1)OCO2`, 84 to 85 °C.
To `CCP(=O)(CC)Cc1ccccc1O` belongs 127 °C; to `COc1ccc([C@H]2CCCN2[S@@](=O)C(C)(C)C)cc1`, 61 to 63 °C; to `C=C[C@H]1CC(C(=O)O)=C[C@@H](OC(C)C)[C@@H]1NC(C)=O`, 206 to 207 °C.
For `CCOC(=O)ON(C(=O)NC)c1cc(Cl)ccc1Cl`, the melting point was 130 to 132 °C.
